Data taken from ChEMBL document CHEMBL1201862, “PubChem BioAssay data set” (2004).
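Five compound concentrations were applied to cells in 96-well plates for 48 hours; endpoints were derived by simple linear interpolation of the resulting dose-response curve. Abbreviation: GI50, concentration required for 50% inhibition of growth.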 Activity calls are given as the source filed them. Rule as the data show it: active = GI50 up to about 1.1 µM and inactive = higher.

Experiments:
Assay in all cases: inhibition of tumour cell growth, NCI panel, 48 h
ACHN = system: ACHN
CAKI-1 = system: CAKI-1
COLO 205 = system: COLO 205
HCC 2998 = system: HCC 2998
HCT-116 = system: HCT-116
IGROV-1 = system: IGROV-1
LOX IMVI = system: LOX IMVI
NCI-H522 = system: NCI-H522
OVCAR-5 = system: OVCAR-5
SF-539 = system: SF-539
SK-MEL-2 = system: SK-MEL-2
UACC-257 = system: UACC-257
UO-31 = system: UO-31
MDA-MB-231 = system: MDA-MB-231
MDA-MB-435 = system: MDA-MB-435
MDA-N = system: MDA-N
NCI/ADR-RES = system: NCI/ADR-RES
SR = system: SR
DU-145 = system: DU-145
T47D = system: T47D

| SMILES | GI50 (ACHN) | GI50 (CAKI-1) | GI50 (COLO 205) | GI50 (HCC 2998) | GI50 (HCT-116) | GI50 (IGROV-1) | GI50 (LOX IMVI) | GI50 (NCI-H522) | GI50 (OVCAR-5) | GI50 (SF-539) | GI50 (SK-MEL-2) | GI50 (UACC-257) | GI50 (UO-31) | GI50 (MDA-MB-231) | GI50 (MDA-MB-435) | GI50 (MDA-N) | GI50 (NCI/ADR-RES) | GI50 (SR) | GI50 (DU-145) | GI50 (T47D) |
| --- | --- | --- | --- | --- | --- | --- | --- | --- | --- | --- | --- | --- | --- | --- | --- | --- | --- | --- | --- | --- |
| C=C(/C=C/C=C(/CCC=C(C)C)COC(C)=O)[C@@H]1CC[C@]2([C@H](CCCO)/C(=C(/C)C=O)CC[C@]2(C)O)[C@@H]1O | 11.5 µM (inactive) | 3.05 µM (inactive) | 0.558 µM (active) | 7.4 µM (inactive) | 19.5 µM (inactive) | 17.2 µM (inactive) | 10.4 µM (inactive) | 17.1 µM (inactive) | 39 µM (inactive) | 14 µM (inactive) | 17.9 µM (inactive) | 17.7 µM (inactive) | 12.7 µM (inactive) |  |  |  |  |  |  |  |
| CN(C)CCCn1c(-c2ccc(Br)cc2)cs/c1=N\c1ccccc1 | 16.8 µM (inactive) | 10.2 µM (inactive) |  | 5.38 µM (inactive) |  |  |  |  | 16.5 µM (inactive) | 14 µM (inactive) | 15.7 µM (inactive) | 14.6 µM (inactive) | 10.4 µM (inactive) | 15.1 µM (inactive) | 18.7 µM (inactive) | 13.8 µM (inactive) | 14.3 µM (inactive) | 14 µM (inactive) |  |  |
| O=C1C2C3SC(c4cc5ccccc5cc43)C2C(=O)N1c1ccccc1 (stereo not given) | 48.5 µM (inactive) | 45 µM (inactive) | > 100 µM (inactive) | > 100 µM (inactive) | > 100 µM (inactive) | > 100 µM (inactive) | > 100 µM (inactive) | 75.7 µM (inactive) | > 100 µM (inactive) | 85.3 µM (inactive) | 77.1 µM (inactive) | > 100 µM (inactive) | > 100 µM (inactive) |  |  |  |  |  |  |  |
| O=C1CCCC2=C1CC1=C(CCCC1=O)N2c1cccc([N+](=O)[O-])c1 | > 100 µM (inactive) | > 100 µM (inactive) |  | > 100 µM (inactive) |  | > 100 µM (inactive) | > 100 µM (inactive) |  | > 100 µM (inactive) | > 100 µM (inactive) |  |  | > 100 µM (inactive) |  |  |  | > 100 µM (inactive) | > 100 µM (inactive) |  |  |
| Cc1nc(N(CCO)CCO)c2sc(=S)n(-c3ccccc3)c2n1 | > 100 µM (inactive) |  | > 100 µM (inactive) | > 100 µM (inactive) | > 100 µM (inactive) | > 100 µM (inactive) |  | > 100 µM (inactive) | > 100 µM (inactive) | > 100 µM (inactive) | > 100 µM (inactive) | > 100 µM (inactive) | > 100 µM (inactive) |  |  |  |  | > 100 µM (inactive) |  |  |
| CNC(=O)c1cccc2c(Nc3ccc(NS(C)(=O)=O)cc3OC)c3cccc(C)c3nc12 | 0.014 µM (active) | 0.0207 µM (active) | 0.542 µM (active) | 0.568 µM (active) | 0.243 µM (active) | 1.31 µM (inactive) | 0.0488 µM (active) | 0.279 µM (active) | 0.282 µM (active) | 0.0628 µM (active) | 1.64 µM (inactive) | 1.7 µM (inactive) | 0.425 µM (active) |  |  |  | 2.26 µM (inactive) | < 0.01 µM (active) |  |  |
| Cc1nc2ccccc2c(=O)n1CC(=O)O |  | > 100 µM (inactive) | > 100 µM (inactive) | > 100 µM (inactive) | > 100 µM (inactive) | > 100 µM (inactive) | > 100 µM (inactive) | > 100 µM (inactive) | > 100 µM (inactive) | > 100 µM (inactive) | > 100 µM (inactive) | > 100 µM (inactive) | > 100 µM (inactive) |  |  |  | > 100 µM (inactive) |  |  |  |
| Nc1ccc2c(c1)C1=NNC(=O)CC1C2 (stereo not given) |  | > 100 µM (inactive) | > 100 µM (inactive) | > 74.1 µM (inactive) | > 100 µM (inactive) | > 100 µM (inactive) | > 100 µM (inactive) | > 100 µM (inactive) | > 92.5 µM (inactive) | > 100 µM (inactive) | > 100 µM (inactive) | > 100 µM (inactive) | > 100 µM (inactive) |  |  |  | > 100 µM (inactive) |  |  |  |
| Cc1nc2c(nc1Cl)nc(Oc1ccc(Cl)cc1)c1ccccc12 | 39.5 µM (inactive) | > 100 µM (inactive) | > 100 µM (inactive) | > 100 µM (inactive) | 41.7 µM (inactive) | 55.7 µM (inactive) | 59.6 µM (inactive) | 50.9 µM (inactive) | > 100 µM (inactive) | 90.8 µM (inactive) | > 100 µM (inactive) | > 100 µM (inactive) | 27 µM (inactive) |  |  |  |  | > 100 µM (inactive) |  |  |
| O=C(O)c1nccnc1C(=O)O |  | > 100 µM (inactive) | > 100 µM (inactive) | > 100 µM (inactive) | > 100 µM (inactive) | > 100 µM (inactive) | > 100 µM (inactive) | > 100 µM (inactive) | > 100 µM (inactive) | > 100 µM (inactive) | > 100 µM (inactive) | > 100 µM (inactive) | > 100 µM (inactive) |  |  |  |  | > 100 µM (inactive) |  |  |
| CC12CCC3C(CCC4CC(OC(=O)Cc5ccc(N(CCCl)CCCl)cc5)CCC43C)C1CCC(=O)N2 (stereo not given) | 11.2 µM (inactive) | 15.9 µM (inactive) | 17.3 µM (inactive) | 18.9 µM (inactive) | 15.1 µM (inactive) | 16.2 µM (inactive) |  | 14.7 µM (inactive) |  | 15.1 µM (inactive) | 15.5 µM (inactive) |  | 19.7 µM (inactive) |  |  |  |  | 3.67 µM (inactive) |  |  |
| O=C1C2c3[nH]c4ccccc4c3C3CCSCC3C2C(=O)N1c1ccccc1 (stereo not given) | > 100 µM (inactive) | > 100 µM (inactive) | > 100 µM (inactive) |  | > 100 µM (inactive) | > 100 µM (inactive) | > 100 µM (inactive) | > 100 µM (inactive) | > 100 µM (inactive) | 59.2 µM (inactive) | > 100 µM (inactive) | > 100 µM (inactive) | > 100 µM (inactive) |  |  |  |  |  |  |  |
| O=C(c1ccccc1)c1cc(Cl)ccc1NCn1nnc2ccccc21 | > 100 µM (inactive) |  | 64.6 µM (inactive) | 47.8 µM (inactive) |  | > 100 µM (inactive) | 73.3 µM (inactive) | 47.8 µM (inactive) |  | 37.8 µM (inactive) | 29 µM (inactive) | 55 µM (inactive) | 35.8 µM (inactive) |  |  |  |  | 35.6 µM (inactive) |  |  |
| O=C1CC2(CCC(O)(c3ccc4ccccc4c3)C(C(=O)c3ccc4ccccc4c3)C2)C(=O)c2ccccc2N1 (stereo not given) |  | > 100 µM (inactive) | > 100 µM (inactive) | > 100 µM (inactive) | > 100 µM (inactive) | > 100 µM (inactive) | > 100 µM (inactive) |  | > 100 µM (inactive) | > 100 µM (inactive) | > 100 µM (inactive) | > 100 µM (inactive) | > 100 µM (inactive) | > 100 µM (inactive) | > 100 µM (inactive) |  | > 100 µM (inactive) | > 100 µM (inactive) | > 100 µM (inactive) | 2.13 µM (inactive) |
| CC(C)NC(=O)OCc1nnn2c1CCC2 | > 100 µM (inactive) |  |  | > 100 µM (inactive) | > 100 µM (inactive) | > 100 µM (inactive) | > 100 µM (inactive) | > 100 µM (inactive) | > 100 µM (inactive) | > 100 µM (inactive) | > 100 µM (inactive) | > 100 µM (inactive) | > 100 µM (inactive) |  |  |  |  | > 100 µM (inactive) |  |  |
| O=S(O)CCCSSSCCCS(=O)O | > 100 µM (inactive) |  |  | > 100 µM (inactive) | > 100 µM (inactive) |  | > 100 µM (inactive) | > 100 µM (inactive) | > 100 µM (inactive) | > 100 µM (inactive) | > 100 µM (inactive) | > 100 µM (inactive) | > 100 µM (inactive) |  |  |  |  | > 100 µM (inactive) |  |  |
| C=C1CC(OC)(C(OC)C(=O)N[C@H]2OCO[C@H]3C2O[C@H](C[C@@H](COC)OC)C(C)(C)C3OC)O[C@H](C)[C@@H]1C (stereo not given in full) |  | 0.916 µM (active) | 0.805 µM (active) |  | 0.624 µM (active) | 1.17 µM (inactive) | 0.617 µM (active) |  | 1.42 µM (inactive) | 0.76 µM (active) | 1.15 µM (inactive) | 1.1 µM (active) | 0.759 µM (active) |  |  |  | 2.78 µM (inactive) |  |  |  |
| C=C[C@@]12CCCCC1C/C(=C(/O)OC)C(=O)C2 (stereo not given in full) | > 100 µM (inactive) | > 100 µM (inactive) | > 100 µM (inactive) | > 100 µM (inactive) | > 100 µM (inactive) | > 100 µM (inactive) | > 100 µM (inactive) | > 100 µM (inactive) | > 100 µM (inactive) | > 100 µM (inactive) | > 100 µM (inactive) | > 100 µM (inactive) | > 100 µM (inactive) |  |  |  |  | > 100 µM (inactive) |  |  |
| CC(=O)NC1=C(C)C(=O)c2c(nc3n2CCC3OC(=O)c2ccccc2)C1=O (stereo not given) | 3.04 µM (inactive) | 2.6 µM (inactive) | 4 µM (inactive) | 4.81 µM (inactive) | 1.94 µM (inactive) | 2.08 µM (inactive) | 1.51 µM (inactive) | 2.04 µM (inactive) | 1.99 µM (inactive) | 1.93 µM (inactive) | 1.7 µM (inactive) | 1.54 µM (inactive) | 2.82 µM (inactive) |  |  |  |  | 2.37 µM (inactive) |  |  |
| CC(=O)O[C@H]1CC[C@@]2(C)[C@H](CC[C@@H]3[C@@H]2CC[C@]2(C)[C@@H](c4ccc(=O)oc4)C[C@H]4O[C@]342)C1 |  | 0.397 µM (active) | 3.15 µM (inactive) | 1.33 µM (inactive) | 0.472 µM (active) | 1.08 µM (active) | 0.904 µM (active) | 0.327 µM (active) | 4.8 µM (inactive) | 0.348 µM (active) | 2.7 µM (inactive) | 1.06 µM (active) | 0.791 µM (active) |  |  |  | 0.518 µM (active) |  |  |  |
| COc1cccc(/C=C(/C(=O)O)c2cc(OC)c(OC)c(OC)c2)c1 | > 100 µM (inactive) | > 100 µM (inactive) | > 100 µM (inactive) |  | > 100 µM (inactive) | > 100 µM (inactive) | > 100 µM (inactive) | > 100 µM (inactive) |  | > 100 µM (inactive) |  | > 100 µM (inactive) | > 100 µM (inactive) |  |  |  |  |  |  |  |
